≈ marks a conversion by molar mass, not a printed value. Counter-ions that a name gives are not always drawn. Like-named read-outs stand apart in the source and are kept apart here.
Columns and labels:
[1] = system: Plasmodium falciparum 3D7; assay: In vitro antiplasmodial activity (LDH, Malstat); type: cell-based; conditions: for EC50: Plasmodium falciparum
Experimental: Cultures of asynchronous P. falciparum 3D7 strains were adjusted for 0.5% parasitemia and 1% hematocrit in RPMI medium enriched with 3% lipid-rich bovine serum albumin—Albumax II. […] The plates were incubated for 48 h at 37 °C in an atmosphere of N2 (90%), CO2 (5%) and O2 (5%). After incubation, the parasites were harvested and subjected to three 20-min freeze-thaw cycles. At the same time, 100 µL of Malstat reagent (400 µL of Triton X-100 in 80 mL of deionized water, 4 g of L-lactate, 1.32 g of Tris buffer, and 0.022 g of adenine acetylpyridine dinucleotide in 200 mL of deionized water; pH 9.0), and […] of NBT/PES solution (0.16 g of nitroblue-tetrazolium salt, and 0.08 g of phenazine sulfate in 100 mL of deionized water) were added to each well of an additional 96-well plate. After freezing and thawing cycles, the culture in each of the wells on the first plate was re-suspended by pipetting, and 15 µL was removed from each well and added to the corresponding well on the additional plate (containing the Malstat and NBT/PES reagents). After one hour of incubation in the dark, the color development of the lactate dehidrogenase (LDH) reaction was read on a spectrofluorometer (Varioskan, Thermo, Waltham, MA, USA) at 650 nm. The color intensity in each experimental condition was recorded in fluorescent units (F.U). Non-specific fluorescence was corrected by subtracting F.U. from the blanks. The entire experiment was performed in triplicate in at least two independent experiments. Chloroquine (QC) was used as a positive control and the culture medium was used as a negative control.
The antiplasmodial activity of each compound was evaluated through reduction in parasite growth, calculated according to Equation (2):(2) % parasite inhibition=100−F.U exposed parasites÷F.U non exposed parasites × 100
(§1) Data for percentages of parasite reduction or inhibition were used to calculate the EC50 using Probit linear regression modeling. […] The selectivity index (SI) was calculated dividing cytotoxic activity by anti-parasitic activity using the following formula: SI = CL50 ÷ CE50.

in vitro = assay: in vitro
Experimental: The compounds were analyzed for viability of the human pro-monocytic cell line U-937 (ATCC CRL- 1593.2TM) using an MTT (3-(4,5-dimethylthiazol-2-yl)-2,5- diphenyltetrazolium bromide) assay based on a previously described methodology, assessing cytotoxic activity. The resulting compounds were determined by measuring mitochondrial dehydrogenase activity, adding […] of MTT solution (0.5 mg/mL) and incubation at 37 °C for 3 h. Cell viability was defined from the quantity of formazan produced and the intensity of color (absorbance) registered through optical density (O.D.) obtained at 570 nm in a (VarioskanTM Flash Multimode Reader—Thermo Scientific, Waltham, MA, USA) spectrophotometer. As a negative control, isolated cells were cultured (without the compounds) to observe viability. […] We performed two independent tests with each concentration, in triplicate.
Cytotoxicity was determined according to the viability and mortality percentages obtained in each experimental condition (synthesized compounds, amphotericin B, benznidazole, chloroquine, and culture medium). Viability percentages were first calculated using Equation (1). (1) % Viability=O.D exposed cells÷O.D Control cells × 100 Then, cell growth inhibition percentage was calculated as 100 - % viability.
The cell growth inhibition percentages were used to calculate median lethal concentrations (LC50) using Probit analysis.

[2] = system: Leishmania braziliensis amastigotes; assay: In vitro antileishmanial activity, intracellular amastigotes (EGFP, flow cytometry); type: cell-based; conditions: intracellular amastigotes in U-937 cells, 72 h, mean ± SD
Experimental: The activities of the derivatives in L. braziliensis intracellular amastigotes, transfected with the green fluorescent protein gene (MHOM/CO/88/UA301-EGFP) were evaluated. Initially, human U-937 cells at a density of 3 × 10^5 cells/mL in RPMI 1640 and 0.1 μg/mL PMA (phorbol-12-myristate-13-acetate) were dispensed in a 24-well microplate and incubated at 37 °C, and 5% CO2. At 72 h of incubation, the cells were infected with growing (stationary phase) promastigotes; 15 parasites per cell. The plates were incubated at 34 °C and 5% CO2 for 3 h and the cells then washed twice with phosphate buffer solution (PBS) to eliminate non-internalized parasites. Fresh RPMI-1640 was added to each well (1 mL) and the plates were incubated again to complete the infection. […] The cells were then removed from the bottom plate with a trypsin/EDTA solution (250 mg), and centrifuged at 1100 rpm for 10 min at 4 °C; the supernatant was discarded and the cells were washed with 1 mL of cold PBS and centrifuged twice at 1100 rpm for 10 min at 4 °C. After this final wash, the supernatant was discarded and the cells were suspended in 500 μL of PBS.
The cells were run in a flow cytometer (Cytomics FC 500MPL), reading at 488 nm (exciting) and 525 nm (emitting) over an argon laser, and counting 10,000 events. Infected cells were determined according to green fluorescence events (parasites). Infected cells exposed to the control drug (amphotericin B) were used as antileishmanial activity controls (positive control). Infected cells incubated in the absence of any compound or drug were used as infection controls (negative control). Non-specific fluorescence was corrected by subtracting fluorescence from unstained cells. All determinations were performed in triplicate, in at least two independent experiments.
as §1

L. amazonensis = system: L. amazonensis; set-up: method as in ref 41 = [41]; 41. Monzote L. Córdova W.H.P. García M. Piñón A. Setzer W.N. In-vitro and In-vivo Activities of Phenolic Compounds Against Cutaneous Leishmaniasis Rec. Nat. Prod. 2016 10 269 276; conditions: cited from earlier work
P. falciparum = system: P. falciparum; set-up: method as in ref 42 = [42]; 42. Sudi S. Hassan W.R.M. Ali A.H. Basir R. Embi N. Sidek H.M. A derivative of cinnamic acid, methyl-4-hydroxycinnamate modulates inflammatory cytokine levels in malaria-infected mice through inhibiti; conditions: cited from earlier work
Leishmania amazonensis = system: Leishmania amazonensis; set-up: method as in Lima et al. (2016) 46; conditions: ref Lima et al. (2016) 46; cited from earlier work
Trypanosoma brucei = system: Trypanosoma brucei; set-up: method as in Steverding et al. (2016) 51; conditions: ref Steverding et al. (2016) 51; cited from earlier work
[3] = 3D7, 48 h, read-out: Plasmodium falciparum EC50, 3D7 strain, 48 h, mean ± SD

Row | SMILES | EC50 [1, 3] [µg/mL] | CC50 (in vitro) [µg/mL] | EC50 [2] [µg/mL] | also measured
1 | Cc1ccc(COC(=O)/C=C/c2ccc(O)cc2)cc1 [Compound 11, 4-methylbenzyl p-coumarate] | 84 ± 15.3 (≈ 313 µM) | 20.8 ± 3.47 (≈ 77.6 µM) | 5.69 ± 0.3 (≈ 21.2 µM) | 
2 | CCOC(=O)/C=C/c1ccc(O)cc1 [Compound 2, ethyl p-coumarate] | 110 ± 30.8 (≈ 574 µM) | 1.06 ± 1.08 (≈ 5.51 µM) | 4.91 ± 0.64 (≈ 25.5 µM) | 
3 | O=C(O)C=Cc1ccc(O)cc1 [p-Coumaric acid] |  |  |  | antiparasitic activity against L. amazonensis (L. amazonensis): presents antiparasitic activity
4 | CC(C)c1ccc(COC(=O)/C=C/c2ccc(O)cc2)cc1 [Compound 12, 4-isopropylbenzyl p-coumarate] | 93.7 ± 14.2 (≈ 316 µM) | 35.2 ± 13.9 (≈ 119 µM) | 11.2 ± 0.2 (≈ 37.8 µM) | 
5 | CCCCCOC(=O)/C=C/c1ccc(O)cc1 [Compound 7, pentyl p-coumarate] | 156 ± 8.2 (≈ 667 µM) | 16.1 ± 3.81 (≈ 68.7 µM) | 32 ± 5.05 (≈ 137 µM) | Plasmodium falciparum EC50 ([1]; 3D7 strain, 48 h, mean ± SD): 95.48 ± 1.84 µg/mL
6 | CCCCCCOC(=O)/C=C/c1ccc(O)cc1 [Compound 9, hexyl p-coumarate] | 206 ± 46.4 (≈ 831 µM) | 11.2 ± 0.86 (≈ 45.3 µM) | 4.14 ± 0.55 (≈ 16.7 µM) | 
7 | COCCOC(=O)/C=C/c1ccc(O)cc1 [Compound 5, methoxy-ethyl p-coumarate] | 98.7 ± 17.7 (≈ 444 µM) | 127 ± 16.5 (≈ 570 µM) | 87 ± 18.1 (≈ 391 µM) | 
8 | C[C@@H]1[C@H](O)[C@@H](C)/C=C/C=C/C=C/C=C/C=C/C=C/C=C/[C@H](O[C@@H]2O[C@H](C)[C@@H](O)[C@H](N)[C@@H]2O)C[C@@H]2O[C@](O)(C[C@@H](O)C[C@@H](O)[C@H](O)CC[C@@H](O)C[C@@H](O)CC(=O)O[C@H]1C)C[C@H](O)[C@H]2C(=O)O [AMB, amphotericin B, reference compound] |  | 38.4 ± 6.3 (≈ 41.6 µM) | 0.3 ± 0.07 (≈ 0.325 µM) | 
9 | CCCCCCCCCCCCOC(=O)/C=C/c1ccc(O)cc1 [Compound 10, dodecyl p-coumarate] | 81.2 ± 8.54 (≈ 244 µM) | 15.4 ± 1.84 (≈ 46.4 µM) | 16.3 ± 0.49 (≈ 49.1 µM) | 
10 | COC(=O)/C=C/c1ccc(O)cc1 [Compound 1, methyl p-coumarate] |  | 6.26 ± 0.03 (≈ 35.1 µM) | 8.28 ± 0.14 (≈ 46.5 µM) | EC50 ([1]; 3D7 strain, 48 h, mean ± SD, read-out: Plasmodium falciparum EC50): 64.6 ± 2.89 µg/mL (≈ 362 µM); activity against P. falciparum (P. falciparum): presents activity
11 | CCOC(=O)/C=C/c1ccc(O)c(O)c1 [ethyl caffeate] |  |  |  | activity against Leishmania amazonensis (Leishmania amazonensis): no activity
12 | CCN(CC)CCCC(C)Nc1ccnc2cc(Cl)ccc12 (stereo not drawn) [CQ, chloroquine diphosphate salt, reference compound] |  |  |  | EC50 ([1]; 3D7, 48 h, read-out: Plasmodium falciparum EC50): 3.35 ± 0.39 µg/mL
13 | CCCCOC(=O)/C=C/c1ccc(O)cc1 [Compound 6, butyl p-coumarate] | 199 ± 7.9 (≈ 903 µM) | 30.9 ± 6.32 (≈ 140 µM) | 323 ± 50 (≈ 1470 µM) | 
14 | CCCOC(=O)/C=C/c1ccc(O)cc1 [Compound 3, propyl p-coumarate] | 139 ± 4.07 (≈ 674 µM) | 11.9 ± 0.8 (≈ 57.7 µM) | 6.3 ± 1.14 (≈ 30.5 µM) | 
15 | CC(C)OC(=O)/C=C/c1ccc(O)cc1 [Compound 4, isopropyl p-coumarate] | 106 ± 9.97 (≈ 514 µM) | 96.2 ± 18.9 (≈ 467 µM) | 28.33 ± 0.27 (≈ 137 µM) | 
16 | CC(C)CCOC(=O)/C=C/c1ccc(O)c(O)c1 [isopentyl caffeate] |  |  |  | antiparasitic activity against Trypanosoma brucei (Trypanosoma brucei): antiparasitic activity
17 | CC(C)CCOC(=O)/C=C/c1ccc(O)cc1 [Compound 8, isopentyl p-coumarate] | 95.5 ± 1.84 (≈ 408 µM) | 19.6 ± 1.76 (≈ 83.6 µM) | 6.02 ± 0.22 (≈ 25.7 µM) | Plasmodium falciparum EC50 ([1]; 3D7 strain, 48 h, mean ± SD): 156.37 ± 8.2 µg/mL
